From patent US8529877B2, “Benzylidene compounds comprising phosphono-groups” (BASF SE, priority 2008, dated 2013)

Key:
Assay type in all cases: physicochemical
[1] = Photostability of Butyl Methoxydibenzoylmethane in O/W sunscreen film, solar simulator, HPLC; settings: for Residual Butyl Methoxydibenzoylmethane: solar simulator 2 hours (5400 kJ/m2)
Description: The photostability of Butyl Methoxydibenzoylmethane is determined by spreading the emulsion as a 20 μm thick film on a quartz plate. The film is irradiated using a solar simulator for 2 hours (5400 kJ/m2). After irradiation, the quartz plate is plunged into 5 ml of tetrahydrofurane. The amount of UV-A filter Butyl Methoxydibenzoylmethane is then determined using high performance liquid chromatography. The residual Butyl Methoxydibenzoylmethane is determined to be 42%.
The photostability of Butyl Methoxydibenzoylmethane in the comparative formulation B is determined as described above for formulation A. The residual Butyl Methoxydibenzoylmethane is determined to be 4%.

[2] = Photostability of Ethylhexyl Methoxycinnemate in O/W sunscreen film, solar simulator, HPLC; settings: for Residual Ethylhexyl Methoxycinnemate: solar simulator 4 hours (10800 kJ/m2)
Description: The photostability of the UV-B filter Ethylhexyl Methoxycinnemate is determined by spreading the emulsion as a 20 μm thick film on a quartz plate. The film is irradiated using a solar simulator for 4 hours (10800 kJ/m2). After irradiation, the quartz plate is plunged into 5 ml of tetrahydrofurane. The amount of UV-B filter Ethylhexyl Methoxycinnemate is then determined using high performance liquid chromatography. The residual Ethylhexyl Methoxycinnemate is determined to be 59%.
The photostability of Ethylhexyl Methoxycinnemate in the comparative formulation B is determined as described above for formulation A. The residual Ethylhexyl Methoxycinnemate is determined to be 38%.

[3] = UV shielding properties: UV spectra in ethanol (absorption maximum, A1%1cm); set-up: Absorption maximum λmax: unit not given here; settings: for Absorption maximum λmax / A^1%1 cm: UV spectra in ethanol; for A^1%1 cm: at the absorption maximum; for Absorption bands (coverage of UV range): UV spectrum in ethanol
Text: The UV shielding properties of the bisbiphenyl triazine derivatives were investigated by measuring their UV spectra in ethanol. In the following table the investigated absorption maxima (λmax) together with the corresponding A^1%1cm values are listed.

[4] = Photostability of the UV filter in highly diluted ethanol solution under irradiation, analysed by UV spectroscopy; settings: for Half time: first order kinetic fit, half-life under COLIPA standard sun irradiation
Description: The method used for assessment of photostability is based on the irradiation of a highly diluted solution of the UV-filter. The analysis after certain doses of irradiation was performed by UV-spectroscopy. The concentration of the UV-absorber in ethanol is adjusted to values between 1·10^−5 and 1·10^−6 mol/l, such that the absorbance of the solution in cuvette of 1 cm optical pathlength is equal or smaller than 0.2. The mutual protection of filter molecules can be excluded under such conditions.
Prior to irradiation of a sample the UVB-intensity at the sample position is measured with a UV-radiometer (RM-12, Dr. Gröbel Electronic GmbH). This radiometer was calibrated by comparison with a measurement of the spectral output of the metal halide lamp (including light guide and cut-off filter) using a wavelength-resolved radiometer (Gamma C11). Therefore the relationship of the reading of the RM-12 radiometer and the corresponding spectral output of the lamp is known, and one is able to determine the wavelength-resolved intensities by measuring the UVB-intensity. By changing the distance between the end of the light guide and the cuvette, the UVB-intensity can be varied in the range of 100 μW/cm^2 and 4500 μW/cm^2.
For sample irradiation the highest possible intensity was used (4.5 mW/cm^2 UVB-intensity measured with the Macam 103 radiometer). The irradiation time was varied from 0 to 180 min. The dose the sample has received after 180 minutes corresponds to 60 MED. During irradiation the sample was stirred. After certain intervals of irradiation, the samples were analysed in a UV-spectrometer (Perkin Elmer, Lambda 16).
From the absorbance values at each dose of irradiation the concentration may be calculated using Lambert-Beer's law. In order to get the half-life of the substance, a first order kinetic model was fitted to the experimental data. Since the UV-spectrum of the lamp and the UV-spectrum of the COLIPA standard sun are known, one can calculate the respective half-life of the UV-absorber under conditions of COLIPA standard sun irradiation [Bernd Herzog, Stefan Müller, Myriam Sohn, Uli Osterwalder, “New Insight and Prediction of Photostablity of Sunscreens”, SÖFW Journal 133, 26-36 (2007)].
The investigated half-time values and recovery after irradiation (10 MED) of some specific benzotropolones are listed in the table below: […]

[5] = O/W Sunscreen Formulation A (with P-01), 20 μm film on quartz plate
[6] = comparative formulation B (without P-01), 20 μm film
[7] = formulation A versus comparative formulation B

Structure (SMILES): COc1ccc(C(=O)CC(=O)c2ccc(C(C)(C)C)cc2)cc1 [Butyl Methoxydibenzoylmethane, 1-[4-(1,1-dimethylethyl)phenyl]-3-(4-methoxyphenyl)propane-1,3-dione]
- Residual Butyl Methoxydibenzoylmethane [1, 5]: 42%
- Residual Butyl Methoxydibenzoylmethane [1, 6]: 4%

Structure (SMILES): CCOC(=O)/C(=C\c1ccc(OC)cc1)P(=O)(OCC)OCC [Compound P-1]
- Stabilization factor of Ethylhexyl Methoxycinnemate [2, 7]: 1.55
- Stabilization factor of Butyl Methoxydibenzoylmethane [1, 7]: at least 10
- Absorption maximum λmax [3]: 303
- A^1%1 cm [3]: 519
- Absorption bands (coverage of UV range) [3]: broad absorption bands
- Photodegradation after irradiation of 10 MED [4]: no photodegradation
- Half time [4]: 14 311 h

Structure (SMILES): CCOC(=O)/C(=C\c1ccc(/C=C(\C(=O)OCC)P(=O)(OCC)OCC)cc1)P(=O)(OCC)OCC [Compound P-2]
- Absorption maximum λmax [3]: 302
- A^1%1 cm [3]: 500
- Absorption bands (coverage of UV range) [3]: broad absorption bands
- Half time [4]: 172 h

Structure (SMILES): CCOC(=O)/C(=C\c1ccc(N(CC)CC)cc1)P(=O)(OCC)OCC [Compound P-3]
- Absorption maximum λmax [3]: 366
- A^1%1 cm [3]: 624
- Absorption bands (coverage of UV range) [3]: broad absorption bands
- Half time [4]: 320 h

Structure (SMILES): CCOC(=O)/C(=C\c1cc(OC)c(O)c(OC)c1)P(=O)(OCC)OCC [Compound P-4]
- Absorption maximum λmax [3]: 322
- A^1%1 cm [3]: 390
- Absorption bands (coverage of UV range) [3]: broad absorption bands
- Half time [4]: 100 h

Structure (SMILES): CCOP(=O)(OCC)C(=Cc1ccc(-c2ccccc2)cc1)P(=O)(OCC)OCC [Compound P-5]
- Absorption maximum λmax [3]: 299
- A^1%1 cm [3]: 427
- Absorption bands (coverage of UV range) [3]: broad absorption bands
- Half time [4]: 7 h

Structure (SMILES): CCOP(=O)(OCC)C(=Cc1ccc(OC)cc1)P(=O)(OCC)OCC [Compound P-6]
- Absorption maximum λmax [3]: 313
- A^1%1 cm [3]: 575
- Absorption bands (coverage of UV range) [3]: broad absorption bands
- Half time [4]: 11285 h

Structure (SMILES): CCOC(=O)/C(=C\c1ccc(-c2ccccc2)cc1)P(=O)(OCC)OCC [Compound P-7]
- Absorption maximum λmax [3]: 302
- A^1%1 cm [3]: 650
- Absorption bands (coverage of UV range) [3]: broad absorption bands
- Photodegradation after irradiation of 10 MED [4]: no photodegradation
- Half time [4]: 466.6 h

Structure (SMILES): CCOC(=O)/C(=C\c1ccc(NC(C)=O)cc1)P(=O)(OCC)OCC [Compound P-17]
- Absorption maximum λmax [3]: 308
- A^1%1 cm [3]: 604
- Half time [4]: 947.6 h

Structure (SMILES): CCOC(=O)/C(=C\c1ccc(-c2ccc(/C=C(\C(=O)OCC)P(=O)(OCC)OCC)cc2)cc1)P(=O)(OCC)OCC [Compound P-19]
- Absorption maximum λmax [3]: 324
- A^1%1 cm [3]: 733
- Half time [4]: 220.6 h

Structure (SMILES): CCOC(=O)C(=C1c2ccccc2-c2ccccc21)P(=O)(OCC)OCC [Compound P-20]
- Absorption maximum λmax [3]: 314
- A^1%1 cm [3]: 371
- Half time [4]: 449.2 h

Structure (SMILES): CCOC(=O)/C(=C\c1ccc(O)c(OC)c1)P(=O)(OCC)OCC [Compound P-21]
- Absorption maximum λmax [3]: 319
- A^1%1 cm [3]: 429

Structure (SMILES): CCOC(=O)/C(=C\c1cc(OC)c(OC)c(OC)c1)P(=O)(OCC)OCC [Compound P-22]
- Absorption maximum λmax [3]: 299
- A^1%1 cm [3]: 357
- Half time [4]: 262.8 h

Structure (SMILES): CCCCC(CC)COC(=O)C=Cc1ccc(OC)cc1 (centres unmarked) [Ethylhexyl Methoxycinnemate, 2-ethylhexyl 4-methoxycinnamate]
- Residual Ethylhexyl Methoxycinnemate [2, 5]: 59%
- Residual Ethylhexyl Methoxycinnemate [2, 6]: 38%
